These results are taken from US9555061B2, “Synthesis and analysis of compounds capable of inducing differentiation of human mesenchymal stems cells into hepatocytes” (National University Corporation Torrori University, priority 2011, dated 2017).

Data set [1] has as its system UE7T-13 cells. The experiment in a line: Proliferation potential (toxicity), MTT assay (UE7T-13). On the technique in general: Tetrazolium dyes change colour on reduction, which living cells bring about.
The subject of data set [2] is clinical specimen-derived mesenchymal stem cells. The data set can be described thus: Immunofluorescence staining in clinical specimen-derived mesenchymal stem cells. In kind it is cell-based, human. The conditions noted are these: day 8; PN-3-13 20 μM, IC-2 40 μM.
Procedure: A cover glass that had been sterilized with 100% ethanol was placed on a 12-well plate. Cells were seeded on the cover glass at a cell density of 1.8×10^4 cells/cm^2. This day was designated as day 0. At day 1 corresponding to the next day, the medium was changed to a medium containing HC-2 (at a final concentration of 20 μM), PN-3-13 (at a final concentration of 20 μM), IC-2 (at a final concentration of 40 μM), or 0.1% DMSO. At day 4, the medium was changed in a manner similar to that at day 1. At day 8, the culture medium was removed and the cells were washed twice with PBS. Then, in order to perform immunostaining of albumin, the cells were fixed for 20 min with 4% paraformaldehyde (Nacalai Tesque) containing 8% sucrose (Wako Pure Chemical Industries, Ltd.). For immunostaining of C/EBPα or CYP1A1, the cells were fixed for 20 min with 4% paraformaldehyde. After that, the cells were permeated with 0.2% Triton X-100 (Wako Pure Chemical Industries, Ltd.) for 10 min and were then blocked in 3% BSA (Nacalai Tesque) at room temperature for 30 min without shaking.
After the primary antibody reaction, the cells were washed with 0.1% BSA/PBS. […] The cells were incubated with each antibody, and were kept in a dark condition at room temperature for 1 h to carry out a secondary antibody reaction. Their nuclei were stained with DAPI (Cell Signaling Technology Inc.). […]
Data set [3] shares this test system. The experiment in a line: PAS staining in clinical specimen-derived mesenchymal stem cells. In kind it is cell-based, human. The conditions noted are these: day 8, PN-3-13 20 μM, IC-2 40 μM. How it is done:
PAS staining was performed according to the following procedure. A cover glass that had been sterilized with 100% ethanol was placed on a 12-well plate. Cells were seeded on the cover glass at a cell density of 1.8×10^4 cells/cm^2. This day was designated as day 0. At day 1 corresponding to the next day, each medium was changed to a medium containing HC-2 (at a final concentration of 20 μM), PN-3-13 (at a final concentration of 20 μM), IC-2 (at a final concentration of 40 μM), or 0.1% DMSO. At day 4, the medium was changed in a manner similar to that at day 1, and the cells were cultured until day 8. At day 8, the cells were washed twice with PBS and were fixed with 4% paraformaldehyde for 30 min. As a negative control, α-amylase (Nacalai Tesque) at a final concentration of 10 mg/ml was added, and the cells were incubated therewith at 37° C. for 1 h to digest their glycogen. Subsequently, the cells were treated with 1% aqueous periodic acid for 5 min. Then, the cells were treated with a Schiff reagent (Nacalai Tesque) for 15 min to stain glycogen. After that, the cells were washed three times with aqueous sulfurous acid and were then washed three times with distilled water. The nuclei were stained with Mayer's Hematoxylin (MUTO PURE CHEMICALS CO., LTD.) for 1 min. […]

Data set [4] has as its system bone marrow-derived mesenchymal stem cells. The experiment in a line: RT-PCR of albumin in sorted bone marrow-derived mesenchymal stem cells. In kind it is cell-based, human. The settings on record: 45 μM. As for the experimental part: Cells were seeded on a 6-well plate at a cell density of 1.8×10^4 cells/cm^2. This day was designated as day 0. At day 1 corresponding to the next day, the medium was changed to a medium containing IC-2 (at a final concentration of 25, 35, or 45 μM) or 0.1% DMSO. At day 4, the medium was changed in a manner similar to that at day 1, and at day 8, the cells were reseeded and subcultured at a cell density of 1.8×10^4 cells/cm^2. After that, the medium was replaced twice during 8 days, and the cells were subcultured every 8 days. Then, the similar operation was carried out until day 24. At days 8, 16, and 24 after the initiation of the induction, TRIzol (Invitrogen) was used to extract total RNA according to the attached instruction. After the extraction, deoxyribonuclease (Nippon Gene) was added, and the mixture was incubated at 37° C. for 30 min to remove DNA. In a reverse transcription reaction, SuperScriptII Reverse Transcriptase (Invitrogen) and Oligo(dT)15 primer were added to 1 μg of RNA to convert it into cDNA. In a RT-PCR method, the cDNA was diluted by 5 times. Next, 1 μl of the cDNA was used as a template. Then, rTaq DNA polymerase (TOYOBO) was used to amplify the cDNA. MQ water was used as a negative control. cDNA from Huh-7 or UE7T-13 cells was used as a positive control.
In order to determine hepatocyte differentiation markers, levels of expression of albumin were measured. […]

The test system of data set [5] is UE7T-13 cells. The experiment in a line: Immunocytochemistry of hepatocyte markers (UE7T-13). The conditions noted are these: day 16. Type of data set: cell-based, human. As for the experimental part:
A cover glass (22×22 mm, […]) was sterilized with 70% EtOH and placed in a 6-well plate. Next, cells were seeded on the cover glass and cultured in a medium containing IC-2, etc. At 8, 16, and […] after the initiation of the culture, the cells were washed twice with PBS. Then, the cells were treated with 4% paraformaldehyde/PBS for 20 min and fixed onto the cover glass. After that, the cells were permeated with 0.2% Triton X-100 for 10 min. Subsequently, the cells were blocked with 3% BSA/PBS for 30 min. An anti-albumin antibody, anti-C/EBP antibody, anti-AFP antibody, or anti-CYP1A1 antibody was used as a primary antibody, and the cells were incubated therewith at 4° C. overnight. Next, an Alexa Fluoro 488 goat anti-mouse antibody or Alexa Fluoro 594 goat anti-rabbit antibody was used as a secondary antibody, and the cells were incubated therewith at room temperature for 1 h. DAPI was used for nuclear staining. Thereafter, 50% glycerol diluted with PBS was used to mount the cover glass. Finally, the cells were observed under a confocal laser microscope. The cells which had been cultured with 0.1% DMSO were used as a control.

The subject of data set [6] is UE7T-13 cells. The data set can be described thus: Urea assay (UE7T-13). In kind it is cell-based, human. The settings on record: day 16. How it is done: The cells were plated on a 24-well plate, and were cultured in a medium containing IC-2, etc. Ammonium chloride (at a final concentration of 5 mM) was added to the medium, and the cells were cultured for 48, 72, and 96 h. Then, an amount of urea in the medium was determined using a QuantiChrom Urea Assay Kit (BioAssay Systems) and a fluorescence plate reader (TECAN) at a wavelength of 520 nm.

In the case of “(6S,9aS)-6-phenyl-8-naphthalen-1-ylmethyl-4,7-dioxo-hexahydro-pyrazino[1,2-a]pyrimidine-1-carbocylic acid benzylamide [IC-2]”, in data set [1] (days 2, 4, 8 of treatment), the “concentration with very low cell toxicity toward UE7T-13 cells” value was ≤ 20 µM. Besides, in data set [1] (days 2, 4, and 8), the “concentration at which proliferation potential did not remain” value was 50 µM. For the same substance, the “levels of expression of albumin, C/EBPα, and CYP1A1 compared with negative control (0.1% DMSO)” value in data set [2] is “apparently increased”. In addition, the “cellular glycogen accumulation compared with negative control (0.1% DMSO)” value in data set [3] is “apparent increase”. In addition, the “albumin expression compared with 0.1% DMSO” value in data set [4] is recorded as “remarkable increase”. Besides, the “levels of expression of albumin, C/EBPα, CYP1A1, and CYP3A4” value in data set [5] is given as “remarkably increased”. The “cellular urea synthesis compared with negative control (0.1% DMSO)” value in data set [6] is “remarkably increased”.
